{"source": "PubChem BioAssay AID1996", "data": [{"conditions": "buffer; pH 7.4; 200.0 µM", "units": {"solubility kinetic": "µg/mL"}, "values": [{"smiles": "O=C(COC(=O)c1ccc([N+](=O)[O-])o1)NCc1ccccc1", "solubility kinetic": "> 45.6"}, {"smiles": "CC(Oc1ccc(Br)cc1)C(=O)NCCCN1CCCC1=O", "note": "(stereo not given)", "solubility kinetic": "> 55.4"}, {"smiles": "CC(C)(C)c1ccc(OCC(=O)Nc2ccncc2)c(Br)c1", "solubility kinetic": 10.4}, {"smiles": "CC(C)(C)c1ccc(OCCCn2ccnc2)cc1", "solubility kinetic": 25.5}, {"smiles": "CCn1c(C)nc2cc(C#N)ccc21", "solubility kinetic": "> 27.8"}, {"smiles": "O=C(O)c1ccccc1-c1ccccc1C(=O)Nc1ccc(F)cc1", "solubility kinetic": "> 50.3"}, {"smiles": "COc1cccc(CC(=O)Nc2ccc3c(c2)CCC3)c1", "solubility kinetic": 8.3}, {"smiles": "CN1CCC(O)(c2cccs2)C(C(=O)c2cccs2)C1", "note": "(stereo not given)", "solubility kinetic": 42.1}, {"smiles": "Nn1c(-c2ccccc2)nc2ccccc2c1=O", "solubility kinetic": "> 35.6"}, {"smiles": "COC(=O)c1cc(S(=O)(=O)N(C)C2CCCCC2)cn1C", "solubility kinetic": 45}, {"smiles": "Cc1cccc(N2C(S)=C(C#N)C(=O)NC2c2ccco2)c1", "note": "(stereo not given)", "solubility kinetic": "> 46.7"}, {"smiles": "CCOc1ccc2oc(=O)cc(CN3CCOCC3)c2c1", "solubility kinetic": 41.5}, {"smiles": "CC(=O)CSc1ccc(-c2nc3ccccc3[nH]2)cn1", "solubility kinetic": "> 42.5"}, {"smiles": "COc1cc(Cl)c(S(=O)(=O)N2CCCC2)cc1Cl", "solubility kinetic": 42.1}, {"smiles": "O=C(O)CSCC(=O)N1CCCCC1", "solubility kinetic": "> 32.6"}, {"smiles": "O=C(Cc1ccc([N+](=O)[O-])cc1)NC(C(=O)[O-])C(O)c1cccc([N+](=O)[O-])c1.[Na+]", "note": "(stereo not given)", "solubility kinetic": "> 61.7"}, {"smiles": "Cc1cccc(-c2nc3ccccc3c(=O)[nH]2)c1", "solubility kinetic": 4.2}, {"smiles": "O=C(NCCCN1CCCC1=O)c1cc(-c2ccc(F)cc2)nc2ccccc12", "solubility kinetic": "> 58.7"}, {"smiles": "Cc1cc(=O)n(C)c2ccc(S(=O)(=O)N3CCOCC3)cc12", "solubility kinetic": 46.5}, {"smiles": "COc1ccc(-n2c(-c3ccccc3)c[n+]3c2CCC3)cc1.[Br-]", "solubility kinetic": "> 55.7"}, {"smiles": "CCOc1cccc(C2CC(=O)Nc3cc(OC)c(OC)cc32)c1", "note": "(stereo not given)", "solubility kinetic": 12.5}, {"smiles": "Cc1cc(F)ccc1NC(=O)c1cnccn1", "solubility kinetic": 29.7}, {"smiles": "CC1(C)OC(=O)C(=Cc2ccc[nH]2)C(=O)O1", "solubility kinetic": 25.4}, {"smiles": "C=CCN1CC[C@]23c4c5ccc(O)c4O[C@H]2C(=O)CC[C@@]3(O)[C@H]1C5.Cl", "solubility kinetic": "> 54.6"}, {"smiles": "CSc1ccc(S(=O)(=O)NCCCn2ccnc2)cc1", "solubility kinetic": "> 46.7"}, {"smiles": "O=C(NC(=O)c1ccccc1O)c1ccc(C(F)(F)F)cc1", "solubility kinetic": 2.3}, {"smiles": "Fc1ccc(NC(=S)N2CCOCC2)c(F)c1", "solubility kinetic": "> 38.7"}, {"smiles": "Cc1ccccc1Oc1ncnc(N)c1[N+](=O)[O-]", "solubility kinetic": 9.8}, {"smiles": "CCn1c(SC)nc2cc(S(=O)(=O)N3CCCCC3)ccc21", "solubility kinetic": 43.6}, {"smiles": "CCC(C)[C@H](NC(=O)NCCCOC(C)C)C(=O)OC", "note": "(stereo not given in full)", "solubility kinetic": "> 43.3"}, {"smiles": "Cc1ccc(S(=O)(=O)N2CCC(C(=O)NCCCN3CCCC3=O)CC2)cc1", "solubility kinetic": 51.9}, {"smiles": "COc1ccccc1/C=C(\\C)C(=O)c1c(C)cc(C)[nH]c1=O", "solubility kinetic": "> 44.6"}, {"smiles": "COc1ccc(N2C(=O)CC(C3CCCO3)C2=O)cc1", "note": "(stereo not given)", "solubility kinetic": "> 41.3"}, {"smiles": "NS(=O)(=O)c1cnccc1Nc1cccc(Br)c1", "solubility kinetic": 36.3}, {"smiles": "CC(=NCCN1CCCCC1)c1c(O)n(-c2ccccc2)c(=O)[nH]c1=O", "solubility kinetic": "> 53.5"}, {"smiles": "CC(C)(C)c1ccc2c(c1)N(CC(=O)N1CCCC1)C(=O)CO2", "solubility kinetic": "> 47.5"}, {"smiles": "O=[N+]([O-])c1ccccc1/C=C/CN1CCCCC1CO", "note": "(stereo not given)", "solubility kinetic": 34.3}, {"smiles": "CC(=O)c1ccc(NC(=O)COC(=O)c2ccc(F)cc2F)cc1", "solubility kinetic": 15.2}, {"smiles": "Nc1ncc([N+](=O)[O-])c(N2CCCCCC2)n1", "solubility kinetic": "> 35.6"}, {"smiles": "O=C(Nc1ccc(-c2ccc([N+](=O)[O-])cc2)cc1)c1ccccc1F", "solubility kinetic": "< 0.4"}, {"smiles": "Cc1cccc(Nc2ccc3nonc3c2[N+](=O)[O-])c1C", "solubility kinetic": "< 0.2"}, {"smiles": "Cc1ccc(-n2c(C)c(C)c3c(NCCCO)ncnc32)cc1", "solubility kinetic": "> 46.6"}, {"smiles": "CCOC(=O)Cc1csc(NC(=O)Cc2ccccc2)n1", "solubility kinetic": "> 45.7"}, {"smiles": "CC(C)N(C(=O)Cn1cnc2cc([N+](=O)[O-])ccc2c1=O)C(C)C", "solubility kinetic": "> 49.9"}, {"smiles": "Nc1nc(COc2ccc(F)cc2)nc(N2CCCCC2)n1", "solubility kinetic": 1.9}, {"smiles": "O=C(COC(=O)c1c[nH]c(=O)[nH]c1=O)Nc1ccccc1F", "solubility kinetic": "> 46.1"}, {"smiles": "O=C(O)c1ccc(NC(=S)NC(=O)c2cccnc2)cc1", "solubility kinetic": "> 45.2"}, {"smiles": "CSc1ncc(C(=O)Nc2cc(C)ccc2C)c(C)n1", "solubility kinetic": "> 43.1"}, {"smiles": "NS(=O)(=O)c1ccc(CCNC(=O)CN2C(=O)NC(c3ccccc3)(c3ccccc3)C2=O)cc1", "solubility kinetic": "> 73.9"}, {"smiles": "Cc1cc(C)c[n+](CC(=O)c2ccccc2)c1.[Br-]", "solubility kinetic": 43.8}, {"smiles": "Cc1ccccc1NC(=O)COC(=O)c1cccnc1", "solubility kinetic": "> 40.5"}, {"smiles": "COc1ccc([N+](=O)[O-])cc1NC(=O)CCC(=O)c1cccs1", "solubility kinetic": 3.8}, {"smiles": "Cc1ccccc1NS(=O)(=O)c1ccc2oc(=O)ccc2c1", "solubility kinetic": "> 47.3"}, {"smiles": "O=C(O)c1cc2c(cn1)[nH]c1ccccc12", "solubility kinetic": "> 31.8"}, {"smiles": "NC(=O)c1ccc(N2CCN(S(=O)(=O)c3cccs3)CC2)c([N+](=O)[O-])c1", "solubility kinetic": 2.3}, {"smiles": "Nc1cccc([N+](=O)[O-])c1", "solubility kinetic": 16.7}, {"smiles": "CC1CCCCN1CC(O)COCc1ccccc1.Cl", "note": "(stereo not given)", "solubility kinetic": "> 45"}, {"smiles": "Cc1[nH]c2ccc(Br)cc2c(=S)c1C/C=C/Cl", "solubility kinetic": 5.3}, {"smiles": "COc1cc(OC)c(C(=O)OCC(=O)NC2CCCCCCC2)cc1OC", "solubility kinetic": "> 56.9"}, {"smiles": "O=C1Nc2ccc([N+](=O)[O-])cc2OC1CCN1CCOCC1", "note": "(stereo not given)", "solubility kinetic": "> 46.1"}]}]}
